These results are taken from patent US20240131168A1, “NAPHTHALENE RING-CONTAINING COMPOUND, PHARMACEUTICAL COMPOSITION CONTAINING SAME, AND USE THEREOF” (JIANGSU YAHONG MEDITECH CO., LTD., priority 2021, published 2024).

The structures appear in SMILES notation.

In one experiment the test system is MCF-7. Briefly: CellTiter-Glo cell proliferation inhibition, MCF-7 (Effect Example 2). Type of experiment: cell-based. The note with it: Homo sapiens, MCF7, 144 h, MCF-7 (CTG), 6 days, starting concentration 10 μM; for inhibition at up to 10 µM: read-out: IH % max (maximum inhibition percentage). Summed up:
(§1)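 MCF-7, TamR-MCF-7, and CRISPR-edited MCF-7 ER D538G or Y537S cells were seeded at 1,000 or 2,000 cells/well in EMEM and cultured 24 h. They were then exposed to a 4-fold, 10-point series (top 10 µM before addition to wells) for 6 days or 72 h at 37 °C. CellTiter-Glo luminescence gave IC50 and maximum % inhibition.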

The test system of another experiment is MCF-7 ER^D538G. Briefly: CellTiter-Glo cell proliferation inhibition, MCF-7 ER^D538G. Type of experiment: cell-based. As to conditions: Homo sapiens, MCF7, 144 h, MCF-7 ER^D538G (CTG), 6 days, starting concentration 10 μM; for inhibition at up to 10 µM: read-out: IH % max (maximum inhibition percentage). The method, boiled down: as §1
A general note: In ATP-based viability assays light output follows the ATP content of the culture.

As to `CCN(CCOc1ccc(Oc2c(-c3ccc(S(C)(=O)=O)cc3)ccc3cc(O)ccc23)cc1)CC(=O)N1CCN(c2ccc3c(c2)C(=O)N(C2CCC(=O)NC2=O)C3=O)CC1` (stereo not shown) [Compound D8, 2-(2,6-dioxopiperidin-3-yl)-5-(4-(N-ethyl-N-(2-(4-((6-hydroxy-2-(4-(methylsulfonyl)phenyl)naphthalen-1-yl)oxy)phenoxy)ethyl)glycyl)piperazin-1-yl)isoindoline-1,3-dione], the figures for the inhibition at up to 10 µM in the experiment with MCF-7 and in the experiment on MCF-7 ER^D538G were 56% and 44%, respectively.

`C[C@@H]1CN(CCOc2ccc(Oc3c(-c4ccc(S(C)(=O)=O)cc4)ccc4cc(O)ccc34)cc2)[C@@H](C)CN1CCOCC(=O)N1CCN(c2ccc3c(c2)CN(C2CCC(=O)NC2=O)C3=O)CC1` (stereo partly drawn) [Compound D9, 3-(5-(4-(2-(2-((2R,5S)-4-(2-(4-((6-hydroxy-2-(4-(methylsulfonyl)phenyl)naphthalen-1-yl)oxy)phenoxy)ethyl)-2,5-dimethylpiperazin-1-yl)ethoxy)acetyl)piperazin-1-yl)-1-oxoisoindolin-2-yl)piperidine-2,6-dione]: in the experiment on MCF-7, the IC50 (as a rule, the concentration at which inhibition is half-maximal) came to 238 nM and the inhibition (usually the share of the control response that was lost under treatment) at up to 10 µM was 60%. In the experiment on MCF-7 ER^D538G, half-maximal inhibition (IC50) was put at 960 nM and the inhibition at up to 10 µM amounted to 65%.

Turning to `CS(=O)(=O)c1ccc(-c2ccc3cc(O)ccc3c2Oc2ccc(N3CCN(CCCCCOCC(=O)N4CCN(c5ccc6c(c5)CN(C5CCC(=O)NC5=O)C6=O)CC4)CC3)cc2)cc1` (stereo not shown) [Compound D11, 3-(5-(4-(2-((5-(4-(4-((6-hydroxy-2-(4-(methylsulfonyl)phenyl)naphthalen-1-yl)oxy)phenyl)piperazin-1-yl)pentyl)oxy)acetyl)piperazin-1-yl)-1-oxoisoindolin-2-yl)piperidine-2,6-dione], the inhibition at up to 10 µM with MCF-7 was 45%; in the experiment on MCF-7 ER^D538G, 54%. In the experiment on MCF-7 ER^D538G, the IC50 was found to be 788 nM.

Regarding `C[C@@H]1CN(CCOCC(=O)N2CCN(c3ccc4c(c3)C(=O)N(C3CCC(=O)NC3=O)C4=O)CC2)[C@@H](C)CN1CCOc1ccc(Oc2c(-c3ccc(S(C)(=O)=O)cc3)ccc3cc(O)ccc23)cc1` (stereo partly drawn) [Compound D15, 2-(2,6-dioxopiperidin-3-yl)-5-(4-(2-(2-((2S,5R)-4-(2-(4-((6-hydroxy-2-(4-(methylsulfonyl)phenyl)naphthalen-1-yl)oxy)phenoxy)ethyl)-2,5-dimethylpiperazin-1-yl)ethoxy)acetyl)piperazin-1-yl)isoindoline-1,3-dione], in the experiment on MCF-7, half-maximal inhibition (IC50) required 486 nM and the inhibition at up to 10 µM was 51%. In the experiment with MCF-7 ER^D538G, the inhibition at up to 10 µM was determined as 48%.

As for `CS(=O)(=O)c1ccc(-c2ccc3cc(O)ccc3c2Oc2ccc(OCCOCCOCCOCCN3CCN(c4ccc5c(c4)C(=O)N(C4CCC(=O)NC4=O)C5=O)CC3)cc2)cc1` (stereo not shown) [Compound D19], the inhibition at up to 10 µM was determined as 44% with MCF-7 and 73% with MCF-7 ER^D538G.

Take `CS(=O)(=O)c1ccc(-c2ccc3cc(O)ccc3c2Oc2ccc(OCCOCCOCCOCCN3CCN(c4ccc5c(c4)C(=O)N(C4CCC(=O)NC4=O)C5)CC3)cc2)cc1` (stereo not shown) [Compound D21]: the inhibition at up to 10 µM in the experiment on MCF-7 is 44%; in the experiment with MCF-7 ER^D538G it was 55%.

For `CS(=O)(=O)c1ccc(-c2ccc3cc(O)ccc3c2Oc2ccc(OCCOCCOCCN3CCN(c4ccc5c(c4)C(=O)N(C4CCC(=O)NC4=O)C5)CC3)cc2)cc1` (stereo not shown) [Compound D22, 3-(6-(4-(2-(2-(2-(4-((6-hydroxy-2-(4-(methylsulfonyl)phenyl)naphthalen-1-yl)oxy)phenoxy)ethoxy)ethoxy)ethyl)piperazin-1-yl)-1-oxoisoindolin-2-yl)piperidine-2,6-dione], the inhibition at up to 10 µM in the experiment with MCF-7 is 38%; in the experiment on MCF-7 ER^D538G, 61%.

Turning to `CCN(CCOCCOCCN1CCN(c2ccc3c(c2)C(=O)N(C2CCC(=O)NC2=O)C3=O)CC1)CCOc1ccc(Oc2c(-c3ccc(S(C)(=O)=O)cc3)ccc3cc(O)ccc23)cc1` (stereo not shown) [Compound D28, 2-(2,6-dioxopiperidin-3-yl)-5-(4-(2-(2-(2-(ethyl(2-(4-((6-hydroxy-2-(4-(methylsulfonyl)phenyl)naphthalen-1-yl)oxy)phenoxy)ethyl)amino)ethoxy)ethoxy)ethyl)piperazin-1-yl)isoindoline-1,3-dione], in the experiment with MCF-7, it took 216 nM to reach half-maximal inhibition (IC50) and the inhibition at up to 10 µM was determined as 53%. In the experiment with MCF-7 ER^D538G, 568 nM corresponded to half-maximal inhibition (IC50) and the inhibition at up to 10 µM stood at 81%.

`CS(=O)(=O)c1ccc(-c2ccc3cc(O)ccc3c2Oc2ccc(OCCOCCOCCN3CCN(c4ccc5c(c4)CN(C4CCC(=O)NC4=O)C5=O)CC3)cc2)cc1` (stereo not shown) [Compound D30]: in the experiment with MCF-7, the IC50 was 541 nM and the inhibition at up to 10 µM is 55%. Besides, the inhibition at up to 10 µM with MCF-7 ER^D538G came to 65%.

Regarding `CCN(CCCCCN(C)CC(=O)N1CCN(c2ccc3c(c2)C(=O)N(C2CCC(=O)NC2=O)C3=O)CC1)CCOc1ccc(Oc2c(-c3ccc(S(C)(=O)=O)cc3)ccc3cc(O)ccc23)cc1` (stereo not shown) [Compound D31, 2-(2,6-dioxopiperidin-3-yl)-5-(4-(N-(5-(ethyl(2-(4-((6-hydroxy-2-(4-(methylsulfonyl))phenyl)naphthalen-1-yl)oxy)phenoxy)ethyl)aminopentyl)-N-methylglycyl)piperazin-1-yl)isoindoline-1,3-dione], the inhibition at up to 10 µM in the experiment on MCF-7 was found to be 32%; in the experiment on MCF-7 ER^D538G it was 90%.

For `CCN(CCOc1ccc(Oc2c(-c3ccc(S(C)(=O)=O)cc3)ccc3cc(O)ccc23)cc1)C(=O)c1ccc(CCC2CCN(C3CCN(c4ccc5c(c4)C(=O)N(C4CCC(=O)NC4=O)C5=O)CC3)CC2)cc1` (stereo not shown) [Compound D34, 4-(2-(1′-(2-(2,6-dioxopiperidin-3-yl)-1,3-dioxoisoindolin-5-yl)-[1,4′-bipiperidin]-4-yl)ethyl)-N-ethyl-N-(2-(4-((6-hydroxy-2-(4-(methylsulfonyl)phenyl)naphthalen-1-yl)oxy)phenoxy)ethyl)benzamide], the IC50 with MCF-7 was 69.8 nM; in the experiment with MCF-7 ER^D538G, 182 nM. Besides, the inhibition at up to 10 µM worked out at 52% with MCF-7 and 82% with MCF-7 ER^D538G.

`CS(=O)(=O)c1ccc(-c2ccc3cc(O)ccc3c2Oc2ccc(OCCOCCOCCOCCOc3ccc4c(c3)C(=O)N(C3CCC(=O)NC3=O)C4)cc2)cc1` (stereo not shown) [Compound D35, 3-(6-(2-(2-(2-(2-(4-((6-hydroxy-2-(4-(methylsulfonyl)phenyl)naphthalen-1-yl)oxy)phenoxy)ethoxy)ethoxy)ethoxy)ethoxy)-1-oxoisoindolin-2-yl)piperidine-2,6-dione]: the inhibition at up to 10 µM in the experiment on MCF-7 worked out at 45%; in the experiment with MCF-7 ER^D538G it was 39%.

Turning to `CS(=O)(=O)c1ccc(-c2ccc3cc(O)ccc3c2Oc2ccc(OCCCCN3CCN(c4ccc5c(c4)CN(C4CCC(=O)NC4=O)C5=O)CC3)cc2)cc1` (stereo not shown) [Compound D59, 3-(5-(4-(4-(4-((6-hydroxy-2-(4-(methylsulfonyl)phenyl)naphthalen-1-yl)oxy)phenoxy)butyl)piperazin-1-yl)-1-oxoisoindolin-2-yl)piperidine-2,6-dione], the inhibition at up to 10 µM with MCF-7 is 37%.
